The data set in a line: gradient 5% acetonitrile 3 min, to 50% in 2 min, to 85% in 15 min, held 3 min, 100 µL/min. To be noted: column: Zorbax Extend-C18 2.1 x 50 mm; eluents: water / acetonitrile, 0.1% formic acid. An outline of the steps:
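Pure standards were analyzed in mixtures of ~100 molecules using HPLC coupled to a quadrupole time-of-flight mass spectrometer, in both positive and negative ionization mode. Separation used a Zorbax Extend-C18 column (2.1 × 50 mm, 1.8 μm) at 100 μL/min, with water and acetonitrile each containing 0.1% formic acid. Dead and dwell volumes were 40 μL and 900 μL, and data were collected over 3 months. Retention time was read from computationally picked adduct peaks, each inspected manually.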
`O=C(Cn1nc2c(c1NC(=O)c1cnccn1)CSC2)NCc1ccco1` came in with an RP-LC retention time of 664 s. The result for `COc1ccc(CCC(=O)NC2CCN(c3nnc4cccc(C)n34)CC2)cc1` reads 647 s.

`Cc1ccc(S(=O)(=O)N2CCC(C)(C(=O)NCc3ccccc3C)CC2)c(C)c1` had an RP-LC retention time of 1040 s. Then `CCc1cc(-c2csc(S(=O)(=O)Nc3ccc(F)c(Cl)c3)c2)on1`, with 1020 s. Then `O=C(C(=O)N1CCN(c2ccccn2)CC1)c1ccc[nH]1`, with 556 s; and `CCC(C)C(NC(=O)Cc1ccccc1F)C(=O)Nc1nc2ccccc2[nH]1` (stereo not given), with 736 s; and `CC(NC(=O)c1ccccc1)c1nc(-c2ccc3c(c2)nnn3C2CCCC2)no1` (stereo not given), with 964 s. The result for `NC(=O)C1CCN(c2oc(-c3ccccc3Cl)nc2S(=O)(=O)c2ccccc2)CC1` reads 765 s; that for `COCCNC(=O)Cc1csc(SCC(=O)c2cccs2)n1`, 669 s; that for `O=C(C1CCCO1)N1CCCn2nc(-c3cccs3)cc2C1` (stereo not given), 689 s. The compound `CN1C(=O)c2cc(S(=O)(=O)NCc3ccccc3Cl)ccc2Oc2cccnc21` registered an RP-LC retention time of 903 s. With `O=C(NCC1CCCO1)C(=O)NCC1(O)CCOCC1` (stereo not given), the RP-LC retention time was determined as 540 s. `Cc1noc(-c2nn(C)c3c2CN(C(=O)c2ccc(Br)cc2)CC3)n1` registered an RP-LC retention time of 774 s. Then `CCCCOc1ccc(C(=O)Nc2nc3c(s2)CCc2ccc(OC)cc2-3)cc1`, with 1360 s; and `CCc1ccc(NC(=O)N2CCCC(C)(C(=O)NCc3ccc(F)cc3)C2)cc1` (stereo not given), with 972 s. The result for `COc1ccc(C(=O)N2CCN(c3ccc(=O)n(-c4ccc(C(C)C)cc4)n3)CC2)cc1OC` reads 867 s; that for `O=C(Cc1c[nH]c2ccccc12)NC1(c2nc(-c3ccncc3)no2)CCCCC1`, 807 s; that for `Cc1ccc(-c2cn3c(CC(=O)NCC(C)c4ccccc4)csc3n2)cc1C` (stereo not given), 930 s. The result for `CCc1nncn1C1CCN(S(=O)(=O)c2ccc(OC)c(Cl)c2)CC1` reads 736 s; that for `O=C(c1ccc2ccccc2n1)N1CCN(C(=O)c2nnn3c2COC(c2ccccc2)C3)CC1` (stereo not given), 833 s; that for `O=C(c1ccc(-c2ccc([N+](=O)[O-])cc2Cl)o1)N1CCOCC1`, 778 s. On to `O=C(Nc1cccc(OCc2nnc(-c3ccc(Cl)cc3)o2)c1)c1ccsc1`, for which the RP-LC retention time was 1010 s. Regarding `CC(=O)c1cccc(S(=O)(=O)NCC2CCN(C(=O)c3cc4ccccc4o3)CC2)c1`, the RP-LC retention time was 781 s.

`COCCc1noc([C@@H]2CN(Cc3ccc(C(C)C)cc3)C[C@H]2CO)n1`: the RP-LC retention time is 663 s.

In the case of `CCOC(=O)c1noc2ncnc(NCC3CCN(Cc4ccccc4Cl)CC3)c12`, the RP-LC retention time was 603 s.

For the compound `CC(C)(C)c1ccc(S(=O)(=O)NCC(=O)Nc2ccc3c(c2)OCO3)cc1`, the RP-LC retention time was 846 s. The result for `Cc1ccccc1OCCCC(=O)Nc1nc(-c2ccc(Br)cc2)cs1` reads 1280 s; that for `CCCC1c2nccn2CCCN1C(=O)c1occc1C` (stereo not given), 611 s. Compound `CCOC(=O)c1noc2ncnc(NC3CCN(Cc4ccccc4)CC3)c12` showed an RP-LC retention time of 616 s. Compound `CN(C(=O)Cc1ccsc1)C1CCc2nn(C)c(=O)n2CC1` (stereo not given) had an RP-LC retention time of 600 s. The result for `Cc1cccc(NC(=O)N2CCN(c3nc4ccccc4nc3C(F)(F)F)CC2)c1C` reads 1100 s; that for `CCc1nn2c(CNC(=O)c3ccccn3)c(-c3ccccc3)nc2s1`, 891 s; that for `CCc1noc(C2(NC(=O)c3cccc(Cl)c3)CCCCC2)n1`, 1030 s. With `CCOc1ccc(NC(=O)C2(CC)CCCCC(=O)N2)cc1` (stereo not given), the RP-LC retention time is 720 s. `Cc1nn(C)c2nc(OC(C)C(=O)Nc3ccccc3F)cc(C(F)(F)F)c12` (stereo not given) registered an RP-LC retention time of 1050 s. In turn, `COc1cccc(-c2nc(Cc3nc(-c4ccccc4OC)oc3C)no2)c1` had an RP-LC retention time of 1030 s. The result for `COC[C@@H]1CN(Cc2c(OC)cccc2OC)C[C@H]1c1ccncc1` reads 656 s; that for `CC(C)c1ccc(-c2nc3ncccn3c2NCc2ccccc2)cc1`, 859 s. The result for `CSc1ncccc1C(=O)Nc1cccc(OCc2nnc(-c3ccccc3)o2)c1` reads 908 s; that for `CC1Oc2ccc(S(=O)(=O)N3CCC(C(=O)NCc4ccco4)CC3)cc2NC1=O` (stereo not given), 722 s. The result for `CCOc1ccccc1C(=O)n1nc(C)c(S(=O)(=O)N2CCC(C)CC2)c1C` reads 1230 s. `Cc1cccc(CN2CCCn3nc(C(=O)NCCc4cnc[nH]4)cc3C2=O)c1` came in with an RP-LC retention time of 610 s.

The compound `O=C(NCC(c1cccnc1)c1c[nH]c2ccccc12)Nc1ccc(Br)cc1F` (stereo not given) gave an RP-LC retention time of 716 s. Then `Cc1ccc(-n2c(=O)n(CC(=O)Nc3ccc(C)cc3C)c3cccnc32)cc1`, with 907 s; and `O=C(Nc1ccc(Cl)cc1)N1CCC(n2cnc3ccc(F)cc3c2=O)CC1`, with 848 s; and `Cn1nc2n(c1=O)CCN(C(=O)c1cc(CN3CCOCC3)on1)CC2`, with 534 s.

`CCN1CCN(C(=O)C2CCCN(c3nc4ccccc4n(Cc4ccccc4)c3=O)C2)CC1` (stereo not given) returned an RP-LC retention time of 706 s. The result for `COC(=O)CCNC(=O)C1c2ccccc2C(=O)N(c2ccccc2)C12CCCCC2` (stereo not given) reads 826 s; that for `O=C(Cn1c(=O)c2cc(-c3ccco3)nn2c2ncccc21)NC1CCCC1`, 698 s; that for `CC(C)c1nnc(C2CN(Cc3cccc(C(F)(F)F)c3)CC23CCN(C)CC3)o1` (stereo not given), 593 s. Then `Cc1cccc(-c2noc(Cn3ccnc3)n2)c1`, with 630 s; and `CCCC(=O)N1CCc2c(c(C(=O)NCc3ccc4c(c3)OCO4)nn2C)C1`, with 728 s; and `CCOC(=O)c1ccc(NS(=O)(=O)c2cc3n(c2)CCCNC3=O)cc1`, with 1010 s. `COc1ccc(-c2cn3ccn(-c4cc(C)cc(C)c4)c(=O)c3n2)cc1`: the RP-LC retention time is 874 s. Take `CCCC(=O)N1CCCn2nc(-c3cccnc3)cc2C1`: the RP-LC retention time was found to be 577 s. The result for `O=C(c1ccno1)N1CCC(c2nnc(-c3ccco3)s2)CC1` reads 644 s. Then `Cn1c(=O)n(CC(=O)O)c(=O)c2c1nc1n2CCCN1c1ccc(F)cc1`, with 632 s. `O=C(NC1CCN(c2cc(-c3ccccc3)[nH]n2)CC1)c1ccoc1` gave an RP-LC retention time of 676 s. `COCc1nc(N2CCN(c3ccccc3F)CC2)ncc1C(=O)O`: the RP-LC retention time worked out at 827 s. Then `Cc1cc(C)cc(NC(=O)Cn2cc(C(=O)N3CCCC3)c(=O)c3ccc(C)nc32)c1`, with 758 s.

The values above are taken from the METLIN SMRT retention time set (Domingo-Almenara et al. 2019).
